Read-outs that look alike come from different tables or passages of the source.
How the values were obtained:
[1] = target: glucosylceramide synthase (GCS) (Homo sapiens (Human), UniProt Q16739); assay: Evaluation of inhibitory activities against GCS (enzyme reaction with A549 cell lysate, NBD C6-ceramide, HPLC fluorescence); type: biochemical; details: GCS activity in A549 cell lysate, 37° C. for 90 minutes
Protocol: Ibiglustat, known as a GCS inhibitor, was used as a control.
After the cells attached to the culture dish were washed with phosphate buffered saline (PBS), the cells were scraped off with a cell scraper and then centrifuged (4000 rpm, 3 min, 4° C.) to collect the cells in a 50 ml tube. The cell pellets were suspended in a lysis buffer (50 mM HEPES, pH 7.3, containing 1× the protease/phosphatase inhibitor cocktail), lysed by sonication, and then the lysate was centrifuged (13000 rpm, 10 min, 4° C.). The obtained supernatant was used for the quantitative analysis of proteins. The amount of proteins was measured using the BCA protein assay kit, using bovine serum albumin as a standard.
Enzymatic reactions were initiated by sequentially adding the following reaction materials to a 96 deep-well plate. Thereafter, the enzymatic reactions were performed at 37° C. for 90 minutes.
The enzymatic reactions were stopped by adding 100 μl of chloroform/methanol (2:1, v/v). After vortexing for 15 seconds, each mixture was centrifuged (4000 rpm, 10 min, 18° C.). The lower layer (50 μl) was transferred to a new 96 deep-well plate and dried with a reduced concentrator.
Data analysis was performed by the following equations. % Area (Sample)=Area (GlcCer)/[Area (Cer)+Area (GlcCer)]×100 % GCS activity=[Area(Sample)−Area(ibiglustat)]/[Area(DMSO)−Area(ibiglustat)]×100

GM1 production = assay: cells; type: cell-based

Sequence of glucosylceramide synthase (GCS) (Q16739 whole entry, looked up): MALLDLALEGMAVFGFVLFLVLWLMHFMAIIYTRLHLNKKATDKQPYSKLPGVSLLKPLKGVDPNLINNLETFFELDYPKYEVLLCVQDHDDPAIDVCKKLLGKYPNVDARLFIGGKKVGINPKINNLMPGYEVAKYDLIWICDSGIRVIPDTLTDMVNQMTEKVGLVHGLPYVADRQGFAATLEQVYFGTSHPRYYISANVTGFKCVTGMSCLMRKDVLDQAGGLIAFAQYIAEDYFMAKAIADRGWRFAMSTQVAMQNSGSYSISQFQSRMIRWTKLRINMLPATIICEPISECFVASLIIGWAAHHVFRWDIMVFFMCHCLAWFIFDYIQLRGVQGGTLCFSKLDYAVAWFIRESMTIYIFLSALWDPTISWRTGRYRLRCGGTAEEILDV

Compound | IC50 [1] | IC50 (GM1 production; Homo sapiens, Jurkat, 72 h) | IC50 (GM1 production; read-out: IC50)
O=C(NC1CCCc2cc(-c3ccc(F)c(F)c3F)ccc21)O[C@@H]1CN2CCC1CC2 (stereo partly drawn) [Example 20, (S)-quinuclidin-3-yl (6-(2,3,4-trifluorophenyl)-1,2,3,4-tetrahydronaphthalen-1-yl)carbamate] | 7.16 nM | 84.4 nM | 
CC1(C)CCc2cc(-c3ccccc3F)ccc2C1NC(=O)O[C@@H]1CN2CCC1CC2 (stereo partly drawn) [Example 94, (S)-quinuclidin-3-yl (6-(2-fluorophenyl)-2,2-dimethyl-1,2,3,4-tetrahydronaphthalen-1-yl)carbamate] | 0.97 nM | 3.1 nM | 
O=C(NC1CCCc2cc(-c3ccc(F)cc3)ccc21)O[C@@H]1CN2CCC1CC2 (stereo partly drawn) [Example 1, (S)-quinuclidin-3-yl (6-(4-fluorophenyl)-1,2,3,4-tetrahydronaphthalen-1-yl)carbamate] | 6.78 nM | 62.6 nM | 
O=C(NC1CCCc2cc(-c3ccc(OC(F)(F)F)cc3)ccc21)O[C@@H]1CN2CCC1CC2 (stereo partly drawn) [Example 4, (S)-quinuclidin-3-yl (6-(4-(trifluoromethoxy)phenyl)-1,2,3,4-tetrahydronaphthalen-1-yl)carbamate] | 1.42 nM | 34.9 nM | 
O=C(NC1c2ccc(-c3ccc(C(F)(F)F)cc3)cc2CCC12CC2)O[C@@H]1CN2CCC1CC2 (stereo partly drawn) [Example 188, (S)-quinuclidin-3-yl (6′-(4-(trifluoromethyl)phenyl)-3′,4′-dihydro-1′H-spiro[cyclopropane-1,2′-naphthalen]-1′-yl)carbamate] | 16.1 nM | 34.1 nM | 
CC(C)(C)c1ccc(-c2ccc3c(c2)CCCC3NC(=O)O[C@@H]2CN3CCC2CC3)cc1 (stereo partly drawn) [Example 36, (S)-quinuclidin-3-yl (6-(4-(tert-butyl)phenyl)-1,2,3,4-tetrahydronaphthalen-1-yl)carbamate] | 22.4 nM | 339 nM | 
O=C(NC1CCCc2cc(-c3ccc4c(c3)OCCO4)ccc21)O[C@@H]1CN2CCC1CC2 (stereo partly drawn) [Example 43, (S)-quinuclidin-3-yl (6-(2,3-dihydrobenzo[b][1,4]dioxin-6-yl)-1,2,3,4-tetrahydronaphthalen-1-yl)carbamate] | 6.06 nM | 616 nM | 
CCCOc1c(C)cc(-c2ccc3c(c2)CCC(C)(C)C3NC(=O)O[C@@H]2CN3CCC2CC3)cc1C (stereo partly drawn) [Example 146, (S)-quinuclidin-3-yl (6-(3,5-dimethyl-4-propoxyphenyl)-2,2-dimethyl-1,2,3,4-tetrahydronaphthalen-1-yl) carbamate] | 1.8 nM |  | 0.8 nM
O=C(NC1CCCc2ccc(-c3ccccc3F)cc21)O[C@@H]1CN2CCC1CC2 (stereo partly drawn) [Example 61] | 8.48 nM |  | 61.9 nM
CC(C)c1cccc(-c2ccc3c(c2)CCC2(CC2)C3NC(=O)O[C@@H]2CN3CCC2CC3)c1 (stereo partly drawn) [Example 205, (S)-quinuclidin-3-yl (6′-(3-isopropylphenyl)-3′,4′-dihydro-1′H-spiro[cyclopropane-1,2′-naphthalen]-1′-yl)carbamate] | 34.2 nM | 44.3 nM | 
CC(C)Cc1ccc(-c2cc3c(cc2F)C(NC(=O)O[C@@H]2CN4CCC2CC4)C(C)(C)CC3)cc1 (stereo partly drawn) [Example 230, (S)-quinuclidin-3-yl (7-fluoro-6-(4-isobutylphenyl)-2,2-dimethyl-1,2,3,4-tetrahydronaphthalen-1-yl)carbamate] | 0.3 nM | 1.8 nM | 
CC1(C)CCc2cc(-c3cccc(Cl)c3)ccc2C1NC(=O)O[C@@H]1CN2CCC1CC2 (stereo partly drawn) [Example 91, (S)-quinuclidin-3-yl (6-(3-chlorophenyl)-2,2-dimethyl-1,2,3,4-tetrahydronaphthalen-1-yl)carbamate] | 0.81 nM | 2.86 nM | 
CC1(C)CCc2cc(-c3cccc(C(F)F)c3)ccc2C1NC(=O)O[C@@H]1CN2CCC1CC2 (stereo partly drawn) [Example 130, (S)-quinuclidin-3-yl (6-(3-(difluoromethyl)phenyl)-2,2-dimethyl-1,2,3,4-tetrahydronaphthalen-1-yl)carbamate] | 1.24 nM | 1.3 nM | 
CC1(C)CCc2ccc(-c3ccc(OC(F)(F)F)cc3)cc2C1NC(=O)O[C@@H]1CN2CCC1CC2 (stereo partly drawn) [Example 154, (S)-quinuclidin-3-yl (2,2-dimethyl-7-(4-(trifluoromethoxy)phenyl)-1,2,3,4-tetrahydronaphthalen-1-yl)carbamate] | 8.4 nM | 17.7 nM | 
O=C(NC1CCCc2cc(-c3cc(Cl)cc(Cl)c3)ccc21)O[C@@H]1CN2CCC1CC2 (stereo partly drawn) [Example 24, (S)-quinuclidin-3-yl (6-(3,5-dichlorophenyl)-1,2,3,4-tetrahydronaphthalen-1-yl)carbamate] | 9.1 nM | 23.1 nM | 
CC1(C)CCc2cc(-c3cccc(OC(F)(F)F)c3)ccc2C1NC(=O)O[C@@H]1CN2CCC1CC2 (stereo partly drawn) [Example 93, (S)-quinuclidin-3-yl (2,2-dimethyl-6-(3-(trifluoromethoxy)phenyl)-1,2,3,4-tetrahydronaphthalen-1-yl)carbamate] | 1.76 nM | 0.388 nM | 
O=C(NC1CCCc2cc(-c3ccccc3Cl)ccc21)O[C@@H]1CN2CCC1CC2 (stereo partly drawn) [Example 10, (S)-quinuclidin-3-yl (6-(2-chlorophenyl)-1,2,3,4-tetrahydronaphthalen-1-yl)carbamate] | 2.56 nM | 37.7 nM | 
CCOc1ccccc1-c1ccc2c(c1)C(NC(=O)O[C@@H]1CN3CCC1CC3)CCC2 (stereo partly drawn) [Example 76, (S)-quinuclidin-3-yl (7-(2-ethoxyphenyl)-1,2,3,4-tetrahydronaphthalen-1-yl)carbamate] | 18.7 nM | 156 nM | 
COc1cc(-c2ccc3c(c2)CCCC3NC(=O)O[C@@H]2CN3CCC2CC3)ccn1 (stereo partly drawn) [Example 51, (S)-quinuclidin-3-yl (6-(2-methoxypyridin-4-yl)-1,2,3,4-tetrahydronaphthalen-1-yl)carbamate] | 9.42 nM | 426 nM | 
COc1cc2c(cc1-c1ccc(OC(C)C)cc1)CCC(C)(C)C2NC(=O)O[C@@H]1CN2CCC1CC2 (stereo partly drawn) [Example 238, (S)-quinuclidin-3-yl (6-(4-isopropoxyphenyl)-7-methoxy-2,2-dimethyl-1,2,3,4-tetrahydronaphthalen-1-yl)carbamate] | 0.55 nM | 3.5 nM | 
CCc1cccc(-c2ccc3c(c2)CCC2(CC2)C3NC(=O)O[C@@H]2CN3CCC2CC3)c1 (stereo partly drawn) [Example 203, (S)-quinuclidin-3-yl (6′-(3-ethylphenyl)-3′,4′-dihydro-1′H-spiro[cyclopropane-1,2′-naphthalen]-1′-yl)carbamate] | 13.5 nM | 35 nM | 
CC1(C)CCc2cc(-c3ccc(OC(F)F)cc3)ccc2C1NC(=O)O[C@@H]1CN2CCC1CC2 (stereo partly drawn) [Example 99, (S)-quinuclidin-3-yl (6-(4-(difluoromethoxy)phenyl)-2,2-dimethyl-1,2,3,4-tetrahydronaphthalen-1-yl)carbamate] | 1.65 nM | 2.56 nM | 
O=C(NC1CCCc2cc(-c3ccc(C(F)(F)F)cc3)ccc21)O[C@@H]1CN2CCC1CC2 (stereo partly drawn) [Example 3, (S)-quinuclidin-3-yl (6-(4-(trifluoromethyl)phenyl)-1,2,3,4-tetrahydronaphthalen-1-yl)carbamate] | 2.3 nM | 58.7 nM | 
CC1(C)CCc2cc(-c3ccnc(F)c3)ccc2C1NC(=O)O[C@@H]1CN2CCC1CC2 (stereo partly drawn) [Example 118, (S)-quinuclidin-3-yl (6-(2-fluoropyridin-4-yl)-2,2-dimethyl-1,2,3,4-tetrahydronaphthalen-1-yl)carbamate] | 17 nM | 12.4 nM | 
